Assay results published in US20060257987A1, “Ppar modulators” (priority 2003, published 2006).

Experiments:
huPPARγ = molecular target: T1, huPPARγ (Homo sapiens, UniProt P37231); experiment: Cotransfection assay in CV-1 cells, AOX PPRE luciferase reporter; assay type: cell-based
T1 construct: expressed in transfected cells; host or cells: CV-1 cells
T1 sequence (P37231 1-505): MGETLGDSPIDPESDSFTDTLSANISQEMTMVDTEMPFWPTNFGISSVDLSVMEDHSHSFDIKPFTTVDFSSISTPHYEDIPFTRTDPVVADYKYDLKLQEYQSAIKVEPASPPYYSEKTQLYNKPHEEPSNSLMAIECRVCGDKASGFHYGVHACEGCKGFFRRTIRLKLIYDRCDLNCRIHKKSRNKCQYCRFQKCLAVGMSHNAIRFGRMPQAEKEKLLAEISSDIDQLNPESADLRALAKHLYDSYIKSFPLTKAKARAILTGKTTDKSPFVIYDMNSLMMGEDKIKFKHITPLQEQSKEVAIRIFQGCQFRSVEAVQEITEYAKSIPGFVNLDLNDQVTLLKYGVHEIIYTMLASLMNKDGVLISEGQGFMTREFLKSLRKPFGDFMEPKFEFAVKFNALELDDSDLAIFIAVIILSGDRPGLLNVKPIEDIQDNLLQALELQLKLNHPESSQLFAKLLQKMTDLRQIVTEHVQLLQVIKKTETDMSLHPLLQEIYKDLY
T1 sequence (P19793 1-462 partner): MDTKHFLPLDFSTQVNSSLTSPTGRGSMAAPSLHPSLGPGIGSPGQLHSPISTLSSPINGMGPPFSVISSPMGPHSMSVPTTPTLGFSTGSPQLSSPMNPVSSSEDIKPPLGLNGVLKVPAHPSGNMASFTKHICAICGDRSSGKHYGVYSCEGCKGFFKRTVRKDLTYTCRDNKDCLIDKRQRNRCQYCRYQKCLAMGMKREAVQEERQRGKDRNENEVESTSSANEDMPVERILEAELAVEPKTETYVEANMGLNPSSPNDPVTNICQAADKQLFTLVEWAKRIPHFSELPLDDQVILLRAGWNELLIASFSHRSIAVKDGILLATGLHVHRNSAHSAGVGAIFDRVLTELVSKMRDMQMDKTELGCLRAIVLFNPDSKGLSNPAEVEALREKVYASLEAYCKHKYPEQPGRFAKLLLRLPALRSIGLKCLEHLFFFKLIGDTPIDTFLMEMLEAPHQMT
Protocol: (§1) Cotransfection assays are carried out in CV-1 cells. The reporter plasmid contains an acylCoA oxidase (AOX) PPRE and TK promoter upstream of the luciferase reporter cDNA. Appropriate PPARs and RXRα are constitutively expressed using plasmids containing the CMV promoter. Since for PPARα and PPARβ, interference by endogenous PPARγ in CV-1 cells is an issue, in order to eliminate such interference, a GAL4 chimeric system is used in which the DNA binding domain of the transfected PPAR is replaced by that of GAL4, and the GAL4 response element is utilized in place of the AOX PPRE. Receptor activation by compounds of the present invention is determined relative to PPARα agonist and PPARγ agonist reference molecules to obtain percent efficacies. EC50 values are determined by computer fit to a concentration-response curve. […] In some cases, a single high concentration of agonist (10 μM) was used.

huPPARδ = molecular target: T2, huPPARδ (Homo sapiens, UniProt Q03181); experiment: Cotransfection assay in CV-1 cells, GAL4 chimeric system, luciferase reporter
T2 sequence (Q03181 211-441 limits assumed): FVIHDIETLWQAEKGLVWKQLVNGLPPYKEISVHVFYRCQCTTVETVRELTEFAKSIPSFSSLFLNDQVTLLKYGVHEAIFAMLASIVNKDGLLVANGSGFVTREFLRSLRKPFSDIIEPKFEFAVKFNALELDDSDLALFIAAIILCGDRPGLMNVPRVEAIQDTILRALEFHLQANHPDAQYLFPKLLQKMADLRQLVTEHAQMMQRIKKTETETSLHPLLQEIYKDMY
Protocol: as §1

huPPARα = molecular target: T3, huPPARα (Homo sapiens, UniProt Q07869); experiment: as above
T3 sequence (Q07869 200-468 limits assumed): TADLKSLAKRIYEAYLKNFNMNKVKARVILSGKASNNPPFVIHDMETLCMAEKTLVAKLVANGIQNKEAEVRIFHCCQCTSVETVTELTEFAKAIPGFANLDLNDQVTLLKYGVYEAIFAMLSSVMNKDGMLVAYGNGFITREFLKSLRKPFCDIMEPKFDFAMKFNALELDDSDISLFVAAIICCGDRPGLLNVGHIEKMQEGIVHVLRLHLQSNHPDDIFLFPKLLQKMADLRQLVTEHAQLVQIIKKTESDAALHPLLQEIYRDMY
Protocol: as §1

hu apoAI transgenic mice = experiment: Evaluation of triglyceride and cholesterol level in HuapoAI transgenic mice; assay type: in vivo; settings: 100 mg/kg oral gavage daily for 7 days

Emax (huPPARγ; CV-1, Table 4, percent efficacy relative to reference agonist, read-out: Eff % γ) | EC50 (huPPARγ; Table 4, effect of X/Y, scaffold drawing 255) | EC50 (huPPARδ) | Emax (huPPARδ; CV-1, read-out: Eff % δ) | EC50 (huPPARα) | Emax (huPPARα; CV-1, read-out: Eff % α) | SMILES | high-density lipoprotein cholesterol (HDLc) peak area (hu apoAI transgenic mice; FPLC of pooled sera, vehicle 47 to 62 v-sec) | mean percent increase of HDLc (hu apoAI transgenic mice; FPLC of pooled sera, versus vehicle) | average triglycerides values (hu apoAI transgenic mice; serum, vehicle about 60 to 80 mg/dl) | mean elevation of total serum cholesterol (hu apoAI transgenic mice; versus vehicle) | mean reduction of triglycerides (hu apoAI transgenic mice; versus vehicle)
63% | 262 nM | 23 nM | 112% | 2890 nM | 39% | CCc1ccc(OC(C)CCSc2ccc(OCC(=O)O)c(C)c2)c(C(=O)c2ccccc2)c1 (centres unmarked) [S/O] |  |  |  |  | 
 |  |  |  |  |  | CC(C)OC(=O)C(C)(C)Oc1ccc(C(=O)c2ccc(Cl)cc2)cc1 [fenofibrate] | 68-96 v-sec | 48% | 33 to 58 mg/dL | 41% | 37%
